Experimental data published in ChEMBL document CHEMBL1143303 (Bioorg Med Chem Lett, 2009).
Active and inactive are the calls of the source. No cut-off for these calls is given here.

Experiments:
[1] = molecular target: DNA (cytosine-5)-methyltransferase 1 (Homo sapiens) (UniProt P26358); experiment: Inhibition of C1226 catalytic site of DNMT1 in presence of S-adenosyl methionine
[2] = molecular target: DNA (cytosine-5)-methyltransferase 1 (Homo sapiens) (UniProt P26358); experiment: Inhibition of C1226 catalytic site of DNMT1
[3] = molecular target: Orphan methyltransferase M.SssI (Spiroplasma monobiae) (UniProt P15840); experiment: Inhibition of Spiroplasma sp. MQ-1 M.SssI up to 100 uM
[4] = molecular target: Orphan methyltransferase M.SssI (Spiroplasma monobiae, UniProt P15840); experiment: (§1) Inhibition of Spiroplasma sp. MQ-1 M.SssI
[5] = molecular target: Orphan methyltransferase M.SssI (Spiroplasma monobiae) (UniProt P15840); experiment: as §1
[6] = tested on: MV4-11; experiment: Induction of global DNA hypomethylation in human MV411 cells at 1 uM after 72 hrs by LC-MS/MS analysis relative to control; assay type: functional, cell-based
[7] = tested on: MV4-11; experiment: Decrease in global DNA methylation in human MV411 cells at 30 uM after 72 hrs by LC-MS/MS analysis relative to control; assay type: functional; design: scale not given: the % may be the effect or the level left
[8] = tested on: MV4-11; experiment: Decrease in global DNA methylation in human MV411 cells at 3 uM after 72 hrs by LC-MS/MS analysis relative to control; assay type: functional; design: scale not given: the % may be the effect or the level left

Chain of DNA (cytosine-5)-methyltransferase 1 (Homo sapiens) (P26358 whole entry): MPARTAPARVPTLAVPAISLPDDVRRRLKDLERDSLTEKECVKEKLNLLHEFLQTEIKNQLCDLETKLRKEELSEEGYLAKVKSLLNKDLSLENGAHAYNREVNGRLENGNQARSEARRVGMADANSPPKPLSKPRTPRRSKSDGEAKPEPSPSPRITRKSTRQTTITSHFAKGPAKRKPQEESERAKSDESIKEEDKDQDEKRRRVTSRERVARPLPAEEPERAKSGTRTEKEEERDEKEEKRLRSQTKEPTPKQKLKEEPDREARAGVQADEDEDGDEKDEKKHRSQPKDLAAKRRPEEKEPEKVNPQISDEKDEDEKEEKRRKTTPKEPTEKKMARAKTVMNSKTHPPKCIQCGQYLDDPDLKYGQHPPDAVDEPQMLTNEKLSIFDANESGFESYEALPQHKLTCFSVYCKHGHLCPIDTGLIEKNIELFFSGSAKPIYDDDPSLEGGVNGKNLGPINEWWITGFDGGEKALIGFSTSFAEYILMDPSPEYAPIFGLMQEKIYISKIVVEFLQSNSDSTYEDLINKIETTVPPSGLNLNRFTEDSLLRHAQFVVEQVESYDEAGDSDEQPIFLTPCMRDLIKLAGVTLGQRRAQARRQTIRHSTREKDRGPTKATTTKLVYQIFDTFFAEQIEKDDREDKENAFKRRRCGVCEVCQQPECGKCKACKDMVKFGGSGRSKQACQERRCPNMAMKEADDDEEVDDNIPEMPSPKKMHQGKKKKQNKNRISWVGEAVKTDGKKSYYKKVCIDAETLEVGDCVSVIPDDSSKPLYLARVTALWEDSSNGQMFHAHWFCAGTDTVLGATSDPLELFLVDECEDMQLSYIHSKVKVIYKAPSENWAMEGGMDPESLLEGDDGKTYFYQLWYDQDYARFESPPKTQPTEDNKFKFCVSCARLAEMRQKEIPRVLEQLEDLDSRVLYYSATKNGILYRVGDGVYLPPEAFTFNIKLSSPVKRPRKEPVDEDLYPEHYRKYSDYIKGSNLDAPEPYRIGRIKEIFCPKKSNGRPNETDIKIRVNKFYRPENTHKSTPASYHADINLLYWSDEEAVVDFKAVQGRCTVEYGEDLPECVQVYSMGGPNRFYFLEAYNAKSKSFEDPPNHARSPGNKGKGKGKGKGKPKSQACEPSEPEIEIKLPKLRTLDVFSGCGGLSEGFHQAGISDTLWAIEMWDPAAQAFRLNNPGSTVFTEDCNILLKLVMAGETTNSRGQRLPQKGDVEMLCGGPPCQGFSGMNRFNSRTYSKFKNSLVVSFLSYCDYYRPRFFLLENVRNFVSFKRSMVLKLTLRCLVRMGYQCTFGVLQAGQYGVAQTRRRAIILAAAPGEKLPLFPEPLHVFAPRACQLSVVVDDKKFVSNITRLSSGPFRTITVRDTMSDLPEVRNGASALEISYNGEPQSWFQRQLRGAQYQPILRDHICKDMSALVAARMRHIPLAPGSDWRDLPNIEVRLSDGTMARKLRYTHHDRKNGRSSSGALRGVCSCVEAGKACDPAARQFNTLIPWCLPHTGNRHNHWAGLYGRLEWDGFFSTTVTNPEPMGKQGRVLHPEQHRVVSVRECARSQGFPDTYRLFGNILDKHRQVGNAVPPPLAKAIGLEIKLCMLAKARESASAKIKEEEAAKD
Chain of Orphan methyltransferase M.SssI (P15840 whole entry): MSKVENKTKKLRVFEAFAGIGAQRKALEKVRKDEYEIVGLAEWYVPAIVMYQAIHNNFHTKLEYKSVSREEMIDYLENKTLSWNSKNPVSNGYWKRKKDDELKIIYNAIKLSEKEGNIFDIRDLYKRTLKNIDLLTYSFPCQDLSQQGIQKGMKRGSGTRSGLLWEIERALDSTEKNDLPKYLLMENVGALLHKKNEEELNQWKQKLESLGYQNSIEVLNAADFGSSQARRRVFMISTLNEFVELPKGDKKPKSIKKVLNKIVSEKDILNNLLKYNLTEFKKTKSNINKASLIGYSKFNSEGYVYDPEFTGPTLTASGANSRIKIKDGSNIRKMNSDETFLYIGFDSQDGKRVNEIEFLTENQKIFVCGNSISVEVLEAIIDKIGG
Chain of Orphan methyltransferase M.SssI (Spiroplasma monobiae) (P15840 whole entry): as above

Activity [1] | Activity [2] | Activity [3] | IC50 [4] | Activity [5] | Compound | Activity [6] | Activity [7] | Activity [8]
Active | Active |  |  |  | COc1cc(CCC(=O)CC(=O)CCc2ccc(O)c(OC)c2)ccc1O |  |  | 
Active | Active | inactive |  |  | COc1cc(CCC(=O)CC(O)CCc2ccc(O)c(OC)c2)ccc1O (centres undefined) |  |  | 
 | Active |  | 30 nM |  | O=C(/C=C/c1ccc(O)cc1)CC(=O)/C=C/c1ccc(O)cc1 [BISDEMETHOXYCURCUMIN] |  |  | 
 | Active |  |  | Dose-dependent effect | COc1cc(/C=C/C(=O)CC(=O)/C=C/c2ccc(O)c(OC)c2)ccc1O [CURCUMIN] | inactive | 15% | 15%
 | Active |  | 30 nM |  | COc1cc(/C=C/C(O)=C/C(=O)/C=C/c2ccc(O)cc2)ccc1O [DEMETHOXYCURCUMIN] |  |  | 
